Results published in PMC8329197, “Compounds targeting OSBPL7 increase ABCA1-dependent cholesterol efflux preserving kidney function in two models of kidney disease” (Nature Communications, 2021).
Values joined by “and” are separate entries in the source; they are usually repeats but may differ in a detail not shown here. Identical values can stand only once. Blank lines part the entries; values can stand above or below the molecule they belong to.

Tests used:
[1] = tested on: Adriamycin (ADR)-induced nephropathy in Balb/c mice; assay: ADR nephropathy: immunofluorescence of glomerular ABCA1 and WT1+ podocyte number; assay type: in vivo, mouse; details: for Glomerular ABCA1 mean fluorescence intensity, mean / Number of Podocytes (WT1+ cells in glomeruli), mean / Glomerular ABCA1 mean fluorescence intensity / Number of Podocytes (WT1+ cells in glomeruli): ADR; for Glomerular ABCA1 mean fluorescence intensity, mean / Number of Podocytes (WT1+ cells in glomeruli), mean: group mean; for Glomerular ABCA1 mean fluorescence intensity / Number of Podocytes (WT1+ cells in glomeruli): individual mice
Protocol: For the detection of ABCA1 expression, 4 μm paraffin kidney cortex sections were deparaffinized and rehydrated. Antigens were retrieved by boiling for 30 min in citrate buffer pH 6.0 (Target Retrieval Solution, Citrate pH 6, Sigma, USA). The sections were permeabilized for 30 min with 0.1% Triton X-100 in TBS. Tissue sections were incubated with 10% goat serum (cat # G9023, Millipore Sigma) and 1% BSA (cat # SP-5050-500, Vector, USA) in TBS-T for 1hr at room temperature to block any non-specific binding. Samples were then incubated overnight at 4 °C with Rat anti-ABCA1 (Novus, 1:200) and Rabbit anti-WT1 (Abcam, 1:200) antibodies in a humidified chamber. After washing extensively, samples were then incubated for 1 h at RT with fluorochrome-conjugated secondary antibodies (Invitrogen, 1:500). Antifade mounting media containing DAPI (Vectashield Plus) was added to the sections before being analyzed.
Images were acquired using a FluoView FV1000 Confocal Microscope (Olympus) with a ×63 oil objective lens in different planes using a Z-series pattern with a step size of 0.18 μm. During analysis, individual planes were deconvoluted and stacked to produce a maximum projected image using fluview software version 4.3b (Olympus). A minimum of 5 images was captured from 5 different fields per sample. Quantification of ABCA1 glomerular mean fluorescence intensity (MFI) was done using Fiji—ImageJ software.

[2] = tested on: CYPs (HLM.); assay: CYP inhibition in HLM; assay type: in vitro ADME, human
[3] = tested on: PgP; assay: PgP inhibition; assay type: in vitro ADME
[4] = Hepatocytes Clint, human; assay type: in vitro ADME
[5] = Free fraction, man; assay type: in vitro ADME; details: rat
[6] = Hepatocytes Clint, rat; assay type: in vitro ADME
[7] = Covalent Binding; assay type: in vitro ADME
[8] = tested on: Adriamycin (ADR)-induced nephropathy in Balb/c mice; assay: ADR nephropathy: IL-1β and MCP-1 mRNA in kidney cortex; assay type: in vivo, mouse
Protocol: RNA was isolated using RNEasy Plus Mini kit (Qiagen). Reverse transcription was performed using qScript cDNA Super Mix (Quantabio) according to the manufacturer’s instructions. Quantitative real-time PCR was performed using TaqMan Fast Universal PCR Master Mix and Taqman gene expression assays (Supplementary Table 7).

[9] = Rat single-dose pharmacokinetics; details: in vivo
[10] = Microsomal metabolism, human; assay type: in vitro ADME
[11] = tested on: THP1 macrophages transfected with siRNA; assay: apoAI-mediated cholesterol efflux in siRNA-transfected THP1 macrophages; assay type: cell-based, human; set-up: unit not given here; details: Cpd G 5 µM; for APOA1-MEDIATED CHOLESTEROL EFFLUX: single experiments
Protocol: siRNA pools specific for human OSBPL7, human CB1R and non target siRNA negative control are summarized in Supplementary Table 6. THP1 monocytes were seeded at a density of 80,000 cells/well in 96-well plates and differentiated with PMA as described above. After 72 h, medium was replaced by 50 µl of fresh medium per well. Cells were then transfected using Viromer Blue reagent (Origene) following the manufacturer’s directions. Briefly, 10 µl of siRNA (5 µM) was mixed with 90 µl of Viromer Blue (diluted 1% v/v in supplied buffer). After 15 min incubation, siRNA-transfection reagent complexes were diluted 1:6.5 in fresh medium and added in a volume of 50 µl per well. After 24 h, cells were then loaded with cholesterol by incubation with acetylated LDL (25 µg/ml) in RPMI medium, 1% FBS, 100 nM PMA, 2 µCi ^3H-cholesterol for 24 h. A set of wells containing transfected cells was set aside to verify transfection efficiency by RT-PCR. The cholesterol-loaded macrophages were then incubated in the presence of Cpd G 5 μM, or vehicle (0.1% DMSO) in RPMI medium w/o Phenol Red, 0.2% BSA) for an additional 24 h. Cholesterol efflux was then measured as described above.

[12] = target: human cannabinoid 1 receptor (hCB1-R) (Homo sapiens, UniProt P21554); assay: Potency for binding to the CB1R in vitro (Ki); details: human CB1 receptor binding
Chain of human cannabinoid 1 receptor (hCB1-R) (P21554 whole entry): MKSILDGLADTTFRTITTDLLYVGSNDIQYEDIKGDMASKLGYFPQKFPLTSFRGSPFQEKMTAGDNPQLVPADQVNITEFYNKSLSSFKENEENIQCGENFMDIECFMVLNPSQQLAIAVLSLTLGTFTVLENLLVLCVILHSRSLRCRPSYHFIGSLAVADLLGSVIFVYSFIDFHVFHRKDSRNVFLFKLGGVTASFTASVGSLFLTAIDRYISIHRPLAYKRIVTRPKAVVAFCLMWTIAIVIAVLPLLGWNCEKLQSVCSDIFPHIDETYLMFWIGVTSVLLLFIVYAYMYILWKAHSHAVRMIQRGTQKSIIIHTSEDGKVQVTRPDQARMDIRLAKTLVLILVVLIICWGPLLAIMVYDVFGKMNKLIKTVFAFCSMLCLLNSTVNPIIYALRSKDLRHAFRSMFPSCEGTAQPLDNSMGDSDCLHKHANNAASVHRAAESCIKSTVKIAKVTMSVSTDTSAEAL

[13] = tested on: T1, OSBPL7; assay: Competition with ^3H-Cpd K UV cross-linking to FLAG-tagged OSBPL7 in HEK293 cells (immunoprecipitation, autoradiography); assay type: binding, human; set-up: OSBP7 percentage of inhibition / OSBP7 percentage of inhibition, average: concentration or dose not given beside the values; OSBPL7 Competition %: dose or concentration left out as unconfirmed
T1 construct: Plasmids expressing each as a full-length protein with a C-terminal FLAG tag were obtained; expressed in transfected cells; host or cells: HEK293
Protocol: Briefly, a plasmid expressing a candidate target of interest fused with a FLAG tag was transfected into HEK293 cells. After 24 h, tritiated compound K at a concentration capable of inducing ABCA1-mediated cholesterol efflux (1.0 μM) was added for 3 h, then the live cells were exposed to UV-light (ʎ = 336 nm) to query potential compound/target cross-linking in situ. Cell lysates were prepared, the expressed protein was then selectively immunoprecipitated using an anti-FLAG antibody coupled to sepharose beads, bound proteins were separated by SDS-PAGE, and two identical blots were prepared and probed by western blot and by autoradiography to detect protein expression and presence or absence of compound crosslinking, respectively. The flow chart of this screen is illustrated in Fig. 2. Figure 2d illustrates the ability of Cpd A and Cpd G to displace tritiated Cpd K from overexpressed and immunoprecipitated OSBPL7. Figure 3b illustrates the use of this assay to detect binding of tritiated Cpd K to overexpressed and immunoprecipitated variants of OSBPL7 containing point mutations in the predicted oxysterol binging pocket of OSBPL7. The advantages of this method are: i. the use of plasmid transfection leads to high expression of each candidate which reduces the likelihood to miss an authentic target for those which may be expressed at low endogenous levels, ii. the interaction of the chemical probe with its target occurs in a relevant biological context (live cells) at a pharmacologically active concentration, and iii. immunoprecipitation allows the expressed protein of interest to be purified from background proteins, substantially improving the signal/noise ratio.

SMILES: O=C(N[C@@H]1CCCC[C@H]1O)c1cnc(OCC(F)(F)F)c(-c2ccc(Cl)c(Cl)c2)c1 [Cpd G]
- Glomerular ABCA1 mean fluorescence intensity, mean ([1]; 30mg/kg): 13.76
- Number of Podocytes (WT1+ cells in glomeruli), mean ([1]; 30mg/kg): 9.133
- Glomerular ABCA1 mean fluorescence intensity ([1]; 30mg/kg): 13.36 and 14.02 and 13.9
- Number of Podocytes (WT1+ cells in glomeruli) ([1]; 30mg/kg): 11 and 9.6 and 6.8
- Glomerular ABCA1 mean fluorescence intensity, mean ([1]; 100mg/kg): 20.2467
- Number of Podocytes (WT1+ cells in glomeruli), mean ([1]; 100mg/kg): 14.8667
- Glomerular ABCA1 mean fluorescence intensity ([1]; 100mg/kg): 19.7 and 21.32 and 19.72
- Number of Podocytes (WT1+ cells in glomeruli) ([1]; 100mg/kg): 15.4 and 14.2 and 15
- ADR-induced glomerular degeneration with podocyte loss and loss of ABCA1 expression ([1]; immunofluorescence of renal cortex sections): prevented
- CYPs (HLM.) [2]: > 25 µM
- PgP inhibition [3]: Negative
- Hepatocytes Clint (Fh%) (r/h) [4]: > 80%
- fraction unbound [5]: < 0.01
- Hepatocytes Clint (Fh%) (r/h) [6]: 70%
- Covalent Binding [7]: No flag
- IL1β in kidney cortex ([8]; ADR + Cpd G): reduced
- MCP-1 in kidney cortex ([8]; ADR + Cpd G): reduced
- Relative MCP1/PGK1 mRNA Expression (RQ) ([8]; kidney cortexes after ADR injection, No ADR group as reference, individual mice): 0.39 and 4.08 (2×) and 0.99 and 0.91 and 1.65 (2×) and 0.3536 and 0.2392 and 0.3907 and 0.9918 and 0.906 and 0.35 and 0.24
- Relative MCP1/PGK1 mRNA Expression (RQ), Median ([8]; kidney cortexes after ADR injection, group median): 0.91
- Relative IL1-B/PGK1 mRNA Expression (RQ) ([8]; kidney cortexes, ADR, 100 mg/Kg/Day for 28 days, No ADR group as reference, individual mice, 100 mg/kg/day): 0.44 and 1.49 and 0.38 and 0.75 and 0.61 and 2.626 and 0.452 and 0.4443 and 1.494 and 0.3797 and 0.7453 and 0.6111 and 2.63 and 0.45
- Relative IL1-B/PGK1 mRNA Expression (RQ), Median ([8]; kidney cortexes, ADR, 100 mg/Kg/Day for 28 days, group median): 0.61
- bioavailability [9]: 105%
- clearance [9]: 2.5 mL/min/kg
- half-life [9]: 8.9 h
- Vd ([9]; read-out: Vss): 1.5 L/kg
- Microsomes (MAB%) (r/h) [10]: 82%
- APOA1-MEDIATED CHOLESTEROL EFFLUX, mean ([11]; siCB1R cells): 4.467
- APOA1-MEDIATED CHOLESTEROL EFFLUX ([11]; siCB1R cells): 5.6 and 4.3 and 3.5
- APOA1-MEDIATED CHOLESTEROL EFFLUX, mean ([11]; siCTRL cells): 4.267
- APOA1-MEDIATED CHOLESTEROL EFFLUX ([11]; siCTRL cells): 5 and 4.8 and 3

- Ki [12]: > 10 µM
SMILES: O=C(N[C@@H]1CCCC[C@H]1O)c1ccc(OCC(F)(F)F)c(-c2ccc(Cl)c(Cl)c2)n1 [Cpd A]
- OSBP7 percentage of inhibition, average ([13]; average of 3): 65%
- OSBPL7 Competition % ([13]; average(SEM)): 65(8.1) %
- OSBP7 percentage of inhibition ([13]; single experiments (3 per compound)): 50% and 78% and 67%
- Competition for ^3H-Cpd K binding to OSBPL7 ([13]; unlabeled Cpd K at 50-fold excess, Cpd A, Cpd G 10 and 50 µM): effective competitors
